Assay [1] concerns the target hGYS1 enzyme (recombinant hGYS1/GN1 protein) (Homo sapiens (Human), UniProt P13807). Description: GYS1 coupled enzyme assay (PK/LDH). Particulars: hGYS1/GN1 50 nM, UDP-Glucose 0.8 mM, G6P 1 mM; geometric mean of at least 2 runs. The format is biochemical.
Assay [2] has as its system hGYS1 enzyme / glycogen synthesis in HeLa cells. Description: GYS1 cell based assay (glycogen synthesis, Glucose-glo). The arrangement: species or system human. The settings on record: Homo sapiens, HeLa, 24 h, 24 h incubation, 20 mM glucose, geometric mean of at least 2 runs. The method, boiled down: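 HeLa cells starved 24 h in medium containing only 1× Glutamax were plated onto compound in medium with 20 mM glucose (1% DMSO final) for 24 h, 37 °C, 5% CO2. Acid lysates were Tris-quenched, glucoamylase-digested (pH 5.3, 1 h, 37 °C) and read by Glucose-glo luminescence. IC50 came from Hill fits, as geometric mean of ≥2 runs.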

The target of assay [3] is hGYS2 enzyme (recombinant hGYS2/GN1 protein) (Homo sapiens (Human), UniProt P54840). The assay is described as follows: GYS2 coupled enzyme assay (PK/LDH). The format is biochemical. The settings on record: geometric mean of at least 2 assay runs on separate days, read-out: Avg_IC50. The method, boiled down: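 Recombinant hGYS2/GN1 (200 nM) with 2 mM UDP-glucose, 0.2% rabbit liver glycogen, 2 mM glucose-6-phosphate; UDP coupled via PK/LDH (2 mM PEP, 0.6 mM NADH). Buffer 50 mM Tris pH 7.5, 2 mM MgCl2, 100 mM KCl, 2.5% DMSO. A340 slope over 10 min; IC50 from Hill fit of duplicates.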

Bounds are passed on as bounds.

Experimental findings from patent publication US11814367B2, “Inhibitors of glycogen synthase 1 (GYS1) and methods of use thereof” (Maze Therapeutics, Inc., priority 2021, dated 2023) are described below.

Chain of hGYS1 enzyme (recombinant hGYS1/GN1 protein) (P13807 whole entry): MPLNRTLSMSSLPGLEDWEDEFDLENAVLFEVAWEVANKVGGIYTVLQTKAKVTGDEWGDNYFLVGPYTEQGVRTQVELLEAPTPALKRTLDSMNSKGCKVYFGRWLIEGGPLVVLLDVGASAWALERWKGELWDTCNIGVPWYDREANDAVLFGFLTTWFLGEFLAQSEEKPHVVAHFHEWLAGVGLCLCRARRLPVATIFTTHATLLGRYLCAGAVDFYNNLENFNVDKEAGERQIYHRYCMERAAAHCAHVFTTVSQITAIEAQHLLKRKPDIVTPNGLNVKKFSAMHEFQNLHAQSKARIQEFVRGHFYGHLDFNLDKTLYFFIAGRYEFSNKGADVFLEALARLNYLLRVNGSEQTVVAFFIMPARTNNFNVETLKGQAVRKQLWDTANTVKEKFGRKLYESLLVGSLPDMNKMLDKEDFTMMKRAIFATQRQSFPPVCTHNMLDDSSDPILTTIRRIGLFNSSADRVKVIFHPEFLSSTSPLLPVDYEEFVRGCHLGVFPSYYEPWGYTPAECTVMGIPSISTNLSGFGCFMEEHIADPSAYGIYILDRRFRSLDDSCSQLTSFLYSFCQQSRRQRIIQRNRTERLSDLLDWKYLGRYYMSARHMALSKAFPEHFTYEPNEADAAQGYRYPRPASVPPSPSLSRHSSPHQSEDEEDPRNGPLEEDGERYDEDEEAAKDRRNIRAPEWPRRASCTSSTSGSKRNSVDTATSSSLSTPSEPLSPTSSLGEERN
Chain of hGYS1 enzyme (recombinant hGYS1/GN1 protein) (P46976 whole entry partner): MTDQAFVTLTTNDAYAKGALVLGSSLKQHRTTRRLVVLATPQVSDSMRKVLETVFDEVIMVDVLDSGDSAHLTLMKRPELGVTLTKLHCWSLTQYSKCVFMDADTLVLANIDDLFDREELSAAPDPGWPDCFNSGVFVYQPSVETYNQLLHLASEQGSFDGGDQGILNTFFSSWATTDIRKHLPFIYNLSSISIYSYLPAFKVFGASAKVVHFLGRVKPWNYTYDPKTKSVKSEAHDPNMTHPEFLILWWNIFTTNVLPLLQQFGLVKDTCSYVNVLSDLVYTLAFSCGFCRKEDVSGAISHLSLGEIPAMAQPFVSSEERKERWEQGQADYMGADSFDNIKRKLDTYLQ
Chain of hGYS2 enzyme (recombinant hGYS2/GN1 protein) (P54840 whole entry): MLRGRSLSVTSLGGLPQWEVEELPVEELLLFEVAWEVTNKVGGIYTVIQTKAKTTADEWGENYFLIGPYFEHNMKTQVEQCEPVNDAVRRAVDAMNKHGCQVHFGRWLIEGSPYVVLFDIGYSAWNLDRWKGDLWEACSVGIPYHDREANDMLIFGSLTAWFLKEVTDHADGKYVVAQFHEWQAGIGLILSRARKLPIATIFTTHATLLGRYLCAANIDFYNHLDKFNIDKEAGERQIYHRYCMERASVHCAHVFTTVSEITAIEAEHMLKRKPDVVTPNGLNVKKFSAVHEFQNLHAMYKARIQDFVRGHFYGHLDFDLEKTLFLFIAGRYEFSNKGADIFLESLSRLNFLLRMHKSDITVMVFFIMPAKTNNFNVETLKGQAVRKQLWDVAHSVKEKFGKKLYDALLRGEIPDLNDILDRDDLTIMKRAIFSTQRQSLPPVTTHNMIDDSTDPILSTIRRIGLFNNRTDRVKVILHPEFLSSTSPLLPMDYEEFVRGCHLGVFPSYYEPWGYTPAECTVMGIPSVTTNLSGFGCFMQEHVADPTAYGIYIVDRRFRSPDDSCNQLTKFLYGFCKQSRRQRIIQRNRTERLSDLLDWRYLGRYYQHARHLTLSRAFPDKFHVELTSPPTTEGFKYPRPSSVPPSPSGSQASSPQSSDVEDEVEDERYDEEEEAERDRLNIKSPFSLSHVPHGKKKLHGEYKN
Chain of hGYS2 enzyme (recombinant hGYS2/GN1 protein) (P46976 whole entry partner): as the sequence (P46976 whole entry partner) above

For `CC(C)c1ccc([C@@H](NC(=O)[C@@H]2C[C@@H](F)CN2C(=O)Cn2nnc(C(F)(F)F)n2)c2ccccc2)nc1` [Compound 255, (2S,4R)-4-fluoro-N-[(S)-phenyl[5-(propan-2-yl)pyridin-2-yl]methyl]-1-{2-[5-(trifluoromethyl)-2H-1,2,3,4-tetrazol-2-yl]acetyl}pyrrolidine-2-carboxamide], the IC50 in assay [1] was 0.088 µM; in assay [2] it was 1.01 µM; in assay [3], over 100 µM.

`CC(C)c1ccc([C@@H](NC(=O)[C@@H]2C[C@@H](F)CN2C(=O)Cn2nnc(C(F)F)n2)c2ccccc2)nc1` [Compound 256, (2S,4R)-1-{2-[5-(difluoromethyl)-2H-1,2,3,4-tetrazol-2-yl]acetyl}-4-fluoro-N-[(S)-phenyl[5-(propan-2-yl)pyridin-2-yl]methyl]pyrrolidine-2-carboxamide]: the figures for the IC50 in assay [1], in assay [2] and in assay [3] were 0.039 µM, 0.99 µM and over 100 µM, respectively.

As for `Cc1ccc2c(CC(=O)N3C[C@H](F)C[C@H]3C(=O)N[C@@H](c3ccccc3)c3ccc(C(C)C)cn3)cccc2n1` [Compound 257, (2S,4R)-4-fluoro-1-[2-(2-methylquinolin-5-yl)acetyl]-N-[(S)-phenyl[5-(propan-2-yl)pyridin-2-yl]methyl]pyrrolidine-2-carboxamide], the values for the IC50 in assay [1], in assay [2] and in assay [3] were 0.007 µM, 0.24 µM and over 100 µM, respectively.

`CC(C)c1ccc([C@@H](NC(=O)[C@@H]2C[C@@H](F)CN2C(=O)Cc2cccn3c(=O)[nH]nc23)c2ccccc2)nc1` [Compound 258, (2S,4R)-4-fluoro-1-(2-{3-oxo-2H,3H-[1,2,4]triazolo[4,3-a]pyridin-8-yl}acetyl)-N-[(S)-phenyl[5-(propan-2-yl)pyridin-2-yl]methyl]pyrrolidine-2-carboxamide]: the IC50 in assay [1] is 0.026 µM; in assay [2] it was 0.74 µM; in assay [3], over 100 µM.

`CC(C)c1ccc([C@@H](NC(=O)[C@@H]2C[C@@H](F)CN2C(=O)Cn2ncc(N(C)C)n2)c2ccccc2)nc1` [Compound 259, (2S,4R)-1-{2-[4-(dimethylamino)-2H-1,2,3-triazol-2-yl]acety}-4-fluoro-N-[(S)-phenyl[5-(propan-2-yl)pyridin-2-yl]methyl]pyrrolidine-2-carboxamide]: the IC50 in assay [1] is 0.015 µM; in assay [2], 0.28 µM; in assay [3] it was over 100 µM.

Take `CC(C)c1ccc([C@@H](NC(=O)[C@@H]2C[C@@H](F)CN2C(=O)Cn2cc(N(C)C)nn2)c2ccccc2)nc1` [Compound 260, (2S,4R)-1-{2-[4-(dimethylamino)-1H-1,2,3-triazol-1-yl]acetyl}-4-fluoro-N-[(S)-phenyl[5-(propan-2-yl)pyridin-2-yl]methyl]pyrrolidine-2-carboxamide]: the IC50 in assay [1] was 0.035 µM; in assay [2], 0.53 µM; in assay [3], over 100 µM.

Take `CNC(=O)NCC(=O)N1C[C@H](F)C[C@H]1C(=O)N[C@@H](c1ccccc1)c1ccc(C(C)C)cn1` [Compound 261, (2S,4R)-4-fluoro-1-{2-[(methylcarbamoyl)amino]acetyl}-N-[(S)-phenyl[5-(propan-2-yl)pyridin-2-yl]methyl]pyrrolidine-2-carboxamide]: the IC50 in assay [1] is 0.059 µM; in assay [2], 1.8 µM; in assay [3], over 100 µM.

For the molecule `CC(C)c1ccc([C@@H](NC(=O)[C@@H]2C[C@@H](F)CN2C(=O)CNC(N)=O)c2ccccc2)nc1` [Compound 262, (2S,4R)-1-[2-(carbamoylamino)acetyl]-4-fluoro-N-[(S)-phenyl[5-(propan-2-yl)pyridin-2-yl]methyl]pyrrolidine-2-carboxamide], the IC50 in assay [1] was 0.062 µM; in assay [2], 3.63 µM; in assay [3], over 100 µM.

In the case of `CC(C)c1ccc([C@@H](NC(=O)[C@@H]2C[C@@H](F)CN2C(=O)Cc2nn(C)c(=O)[nH]2)c2ccccc2)nc1` [Compound 263, (2S,4R)-4-fluoro-1-[2-(1-methyl-5-oxo-4,5-dihydro-1H-1,2,4-triazol-3-yl)acetyl]-N-[(S)-phenyl[5-(propan-2-yl)pyridin-2-yl]methyl]pyrrolidine-2-carboxamide], the values for the IC50 in assay [1], in assay [2] and in assay [3] were 0.08 µM, 1.95 µM and over 100 µM, respectively.

As to `CC(C)c1ccc([C@@H](NC(=O)[C@@H]2C[C@@H](F)CN2C(=O)Cc2n[nH]c(=O)n2C)c2ccccc2)nc1` [Compound 264, (2S,4R)-4-fluoro-1-[2-(4-methyl-5-oxo-4,5-dihydro-1H-1,2,4-triazol-3-yl)acetyl]-N-[(S)-phenyl[5-(propan-2-yl)pyridin-2-yl]methyl]pyrrolidine-2-carboxamide], the IC50 in assay [1] is 0.13 µM; in assay [2], 4.29 µM; in assay [3], over 100 µM.

Regarding `CC(C)c1ccc([C@@H](NC(=O)[C@@H]2C[C@@H](F)CN2C(=O)CNC(=O)N2CCC2)c2ccccc2)nc1` [Compound 265, (2S,4R)-1-{2-[(azetidine-1-carbonyl)amino]acetyl}-4-fluoro-N-[(S)-phenyl[5-(propan-2-yl)pyridin-2-yl]methyl]pyrrolidine-2-carboxamide], the values for the IC50 in assay [1], in assay [2] and in assay [3] were 0.041 µM, 0.83 µM and over 100 µM, respectively.

Take `CC(C)c1ccc([C@@H](NC(=O)[C@@H]2C[C@@H](F)CN2C(=O)Cc2nn(C)c(=O)o2)c2ccccc2)nc1` [Compound 266, (2S,4R)-4-fluoro-1-[2-(4-methyl-5-oxo-4,5-dihydro-1,3,4-oxadiazol-2-yl)acetyl]-N-[(S)-phenyl[5-(propan-2-yl)pyridin-2-yl]methyl]pyrrolidine-2-carboxamide]: the IC50 in assay [1] was 0.089 µM; in assay [2] it was 1.22 µM; in assay [3], over 100 µM.

For the molecule `CC(C)c1ccc([C@@H](NC(=O)[C@@H]2C[C@@H](F)CN2C(=O)Cc2[nH]nnc2C(F)(F)F)c2ccccc2)nc1` [Compound 268, (2S,4R)-4-fluoro-N-[(S)-phenyl[5-(propan-2-yl)pyridin-2-yl]methyl]-1-{2-[4-(trifluoromethyl)-1H-1,2,3-triazol-5-yl]acetyl}pyrrolidine-2-carboxamide], the IC50 in assay [1] is 0.018 µM; in assay [2], 0.83 µM; in assay [3], over 100 µM.

Consider `Cc1nccc(NCC(=O)N2C[C@H](F)C[C@H]2C(=O)N[C@@H](c2ccccc2)c2ccc(C(C)C)cn2)n1` [Compound 269, (2S,4R)-4-fluoro-1-{2-[(2-methylpyrimidin-4-yl)amino]acetyl}-N-[(S)-phenyl[5-(propan-2-yl)pyridin-2-yl]methyl]pyrrolidine-2-carboxamide], for which the IC50 is 0.014 µM in assay [1], 0.24 µM in assay [2] and over 100 µM in assay [3].

For `CC(C)c1ccc([C@@H](NC(=O)[C@@H]2C[C@@H](F)CN2C(=O)Cc2ncco2)c2ccccc2)nc1` [Compound 270, (2S,4R)-4-fluoro-1-[2-(1,3-oxazol-2-yl)acetyl]-N-[(S)-phenyl[5-(propan-2-yl)pyridin-2-yl]methyl]pyrrolidine-2-carboxamide], the IC50 is 0.096 µM in assay [1], 1.4 µM in assay [2] and over 100 µM in assay [3].

Turning to `Cc1cnc(CC(=O)N2C[C@H](F)C[C@H]2C(=O)N[C@@H](c2ccccc2)c2ccc(C(C)C)cn2)o1` [Compound 271, (2S,4R)-4-fluoro-1-[2-(5-methyl-1,3-oxazol-2-yl)acetyl]-N-[(S)-phenyl[5-(propan-2-yl)pyridin-2-yl]methyl]pyrrolidine-2-carboxamide], the results for the IC50 in assay [1], in assay [2] and in assay [3] were 0.036 µM, 0.87 µM and over 100 µM, respectively.

As for `Cc1coc(CC(=O)N2C[C@H](F)C[C@H]2C(=O)N[C@@H](c2ccccc2)c2ccc(C(C)C)cn2)n1` [Compound 272], the IC50 in assay [1] is 0.054 µM; in assay [2], 0.71 µM; in assay [3], over 100 µM.

As for `CC(C)c1ccc([C@@H](NC(=O)[C@@H]2C[C@@H](F)CN2C(=O)[C@H](C)NC(=O)N(C)C)c2ccccc2)nc1` [Compound 273, (2S,4R)-1-[(2S)-2-[(dimethylcarbamoyl)amino]propanoyl]-4-fluoro-N-[(S)-phenyl[5-(propan-2-yl)pyridin-2-yl]methyl]pyrrolidine-2-carboxamide], the IC50 in assay [1] is 0.149 µM; in assay [2], 1.79 µM; in assay [3], over 100 µM.

As to `CC(C)c1ccc([C@@H](NC(=O)[C@@H]2C[C@@H](F)CN2C(=O)[C@@H](C)NC(=O)N(C)C)c2ccccc2)nc1` [Compound 274, (2S,4R)-1-[(2R)-2-[(dimethylcarbamoyl)amino]propanoyl]-4-fluoro-N-[(S)-phenyl[5-(propan-2-yl)pyridin-2-yl]methyl]pyrrolidine-2-carboxamide], the IC50 in assay [1] was 0.264 µM; in assay [2], 3.23 µM; in assay [3] it was over 100 µM.

`Cc1nn(CC(=O)N2C[C@H](F)C[C@H]2C(=O)N[C@@H](c2ccccc2)c2ccc(C(C)C)cn2)c(=O)o1` [Compound 275, (2S,4R)-4-fluoro-1-[2-(5-methyl-2-oxo-2,3-dihydro-1,3,4-oxadiazol-3-yl)acetyl]-N-N-[(S)-phenyl[5-(propan-2-yl)pyridin-2-yl]methyl]pyrrolidine-2-carboxamide]: the IC50 was 0.076 µM in assay [1], 1.05 µM in assay [2] and over 100 µM in assay [3].
